Assays:
[1] = system: FHA (B. pertussis filamentous hemagglutinin); experiment: Adult mouse immunization with Infanrix (DTaP), anti-FHA serum antibody titers; format: in vivo, Balb/c mice; conditions: 14 days post primary and secondary
Description: For immunization experiments, both neonate and adult mice were immunized intramuscularly (i.m.) in the posterior thigh with 50 μl of total vaccine dose. For adult mouse studies, Balb/c mice (6-8 weeks of age) were immunized with Infanrix (GSK, 1/100th of the human dose)±CRX649 or CRX-727 at 0.1 μg, 1 μg or 10 μg per mouse in different formulations (aqueous choline salt, liposome or alum pre-adsorbed). Serum was harvested 14 days following prime (14dp1) or boost (14dp2) and anti-FHA serum antibody IgG1 and IgG2a titers were measured by ELISA, as described below. For neonatal mouse studies, 7 day old Balb/c and C57BL/6 mice were immunized with a prime-boost schedule (two injections one week apart, for newborn mice at DOL 7 and 14). Serum was harvested 14 days following boost (14dp2) (day of life 28) and anti-FHA serum total IgG titers, IgG1 and IgG2a/IgG2c were measured by ELISA.
For anti-filamentous hemagglutinin (FHA) ELISAs, Nunc MaxiSorp™ flat bottom 96-well plates (ThermoFisher Scientific) were coated with 5 μg/ml FHA (B. pertussis Filamentous Hemagglutinin, Strain: NCTC 10739, The Native Antigen Company/Cedarlane, Burlington, N.C.) in carbonate buffer pH 9.6, incubated overnight at 4° C., washed 3× with wash buffer (KPL 10× Phosphate Buffered Saline with Tween 20 (Fisher Scientific)) and blocked with Superblock™ (ScyTek) for 1 h at room temperature (RT). […]

[2] = system: influenza hemagglutinin (HA); experiment: Mouse immunization with influenza hemagglutinin (HA), HA-specific serum Ig by ELISA; format: in vivo, Balb/c mice; conditions: three times, Day 77
[3] = system: human neonatal and adult blood; experiment: Human whole blood assay, cytokine induction (3M-052, PCV13); format: cell-based; conditions: 6 hours, concentration-dependent, each agent alone
From the text: Human blood sample processing and in vitro stimulation. Peripheral blood was collected from healthy adult volunteers, while human newborn cord blood was collected immediately after Cesarean section delivery of the placenta. Births to known HIV-positive mothers were excluded. Human experimentation guidelines of the U.S. Department of Health and Human Services, The Brigham & Women's Hospital, Beth Israel Deaconess Medical Center Boston, and Boston Children's Hospital were observed, following protocols approved by the local institutional review boards. Human blood was anti-coagulated with 20 units/ml pyrogen-free sodium heparin (American Pharmaceutical Partners, Inc.; Schaumberg, Ill.). All blood products were kept at room temperature and processed within 4 hours from collection. […] Additionally, whole blood assay supernatants were analyzed by multiplex cytokine assays (Millipore; Billerica, Mass., USA). […]
TLR agonists and multi-analyte assays. […] Cytokine and chemokine expression profiles in cell culture supernatants and peripheral blood plasma were measured using customized Milliplex human and non-human primate cytokine/chemokine magnetic bead panels (Millipore), respectively. Assays were analyzed on the Luminex® 100/200™ System employing xPOTENT® software (Luminex; Austin, Tex.) and Millipore Milliplex Analyst (version 3.5.5.0).

CCCCc1nc2c(N)nc3ccccc3c2n1CCO [CRX-649]
anti-FHA IgG1 or IgG2a antibody titers [1]: not able to enhance

CCCCCCCCCCCCCCCCCC(=O)NCCCCOn1c(CCCC)nc2c(N)nc3ccccc3c21 [3M-052, N-[4-[(4-amino-2-butyl-1H-imidazo[4,5-c]quinolin-1-yl)oxy]butyl]octadecanamide]
antigen-specific IgG levels (IgG1, IgG2a) ([2]; HA 10 μg with 0.01-1 mg/kg 3M-052 SC): enhances antigen-specific IgG levels | HA-specific IgG2a Ab production ([2]; added to Alum-adjuvanted HA 10 μg, 0.1 mg/kg 3M-052 SC): markedly enhances | production of TNF [3]: significantly inducing production of TNF over baseline

Reference: US11464854B2, “Methods and compositions relating to adjuvants” (Children's Medical Center Corporation, priority 2017, dated 2022)
